“And” between values parts separate entries of the source, which are not always exact repeats. Equal entries are not always repeated.

The test system of one data set is tumors. To be noted: tumor-bearing mice, reduction of about 0.3 pH units in the tumors; cited from earlier work.
Data set [1] is described as follows: Henderson-Hasselbalch calculation of percent in acid form. To be noted: calculated; for Percent in Acid Form at pH 6.4: pH 6.4 (acidic areas of tumors); for Percent in Acid Form at pH 7.4: pH 7.4 (normal tissues). From the text: The interstitial space in normal tissues is generally at or very near pH 7.4, and in acidic areas of tumors a pH of around 6.4 is fairly typical or readily achievable by known methods. If one knows the pKa value of an acid substance (pKa is the pH at which the acid moiety is half ionized in aqueous solution) one can use the Henderson-Hasselbalch equation (pH=pKa+log [A−]/[HA]) to calculate what fraction of that substance will be in the acid form at any selected pH. […] It should be noted that for carboxyl-containing substances whose acid forms are water soluble, the pKa and pS values are quite similar.
In these calculations the Henderson-Hasselbalch equation was used to calculate the relative concentration of salt and acid forms at a given pH for a substance having acid moieties with a specified pKa or pS value. Then a binomial expansion was used to calculate the concentration of the all-acid form for an onco tool containing 2 or 3 pH-switch components.

Another data set can be described thus: physchem. Here is the method:
In regard to initial testing, a simple pH titration of the prospective pH-switch structure in physiological saline is fast and easy and provides useful information about the key properties one is attempting to achieve.
Typically new structures that may be suitable as advanced pH-switch components are first assessed for their pS value. This entails preparing the sodium salt form of the structure and dissolving it at a concentration of 20 milliMolar in 15 ml of 0.15 Molar NaCl (deareated to remove CO2). […] A plot of pH versus volume of added HCl affords the pS value.
The sodium salts of compounds shown in FIG. 11a (designed to form internal acid-specific H-bond) and 11b (designed to form non-acid-specific H-bonds) were titrated in aqueous solution.

For `O=C(O)CCCc1ccc(N(CCCl)CCCl)cc1` [Chlorambucil], the “improvement in tumor growth delay” value in the data set with tumors was 1.7 fold. For the same compound, in data set [1], the “Percent in Acid Form at pH 6.4” value is recorded as 20.1% and the “Percent in Acid Form at pH 7.4” value was 2.4%. In the data set “physchem”, `CCCCCCCC(=O)O` [octanoic acid] returned a pKa of 5.5.

Turning to `CCC(=O)O` [propionic acid], in data set [1], the “Percent in Acid Form at pH 6.4” value was 2.9% and the “Percent in Acid Form at pH 7.4” value is given as 0.3%. `CCC[N+]1([O-])CCC(C(=O)O)CC1` (stereo not shown) [structure iii in FIG. 15b, N-oxide of N-propylisonipocotic acid]: in the data set “physchem” (titrated in water / aqueous solution), the “minimum of first derivative of the titration curve (pH)” value was ~4.0 and ~5.6.

The pKa is the negative logarithm of the acid dissociation constant. Higher therefore signals a group that holds its proton tightly.

Source of the values: patent US20070231256A1, “Compositions and methods for detecting and treating tumors containing acidic areas” (priority 2006, published 2007).
